# From patent publication EP0201732A2, “Beta-2-mimetics of the 4-aminophenylethanolamine type for the prevention of peptic ulcers” (BOEHRINGER INGELHEIM VETMEDICA GMBH, priority 1985, dated 1986)
# Structures can show the parent of a compound that is named as a salt.
# Assays:
# peptische Labmagenulcera [1] = conditions: dose not given
# Magensäuresekretion = conditions: rat; doses higher by a factor of 100 than needed for the broncholytic effect; Arzneimittelforschung 26, 1404-1420 (1976); cited from earlier work
# [2] = Feed consumption and final weight of the treated calves against the control group; format: in vivo, Kälber
# From the text: (§1) Beispielsweise wurde die Verbindung 1-(4-Amino-3,5,-dichforphenyl)-2-tertbutyfamina-äthanol- hydrochlorid in einer Tagesdosis von 2 mcg/kg Körpergewicht, verteilt auf 2 Dosen, welche dem Futter beigemischt war, 32 bei Beginn der Behandlung ca. 70 Tage alten und ca. 100 kg schweren Kälbern im Vergleich zu einer gleichgroßen Kontrollgruppe fortgesetzt verabreicht.
# (§2) 14 Tage vor dem Schlachttermin wurde die Behandlung beendet.
# Außerdem wies bei einem Futterverbrauch der Versuchsgruppe von 344,3 kg pro Tier bzw. von 343,7 kg pro Tier der Kontrollgruppe die erstere eine um ca. 10 kg höhere Endgewicht pro Tier auf. Bei einem annähernd gleichen Futterverbrauch pro Tier bedeutet dies eine Steigerung der Fleischproduktion von ca. 320 kg in der Versuchsgruppe.
# [3] = Acute oral toxicity (LD50); conditions: mouse, in vivo, Maus, p.o.
# From the text: (§3) Die verabreichte Substanz ist gut verträglich.
# [4] = Tolerability in the treated calves: side effects, haematology and serum enzymes (random samples); format: in vivo, Kälber
# From the text: as §1, §3
# peptische Labmagenulcera [5] = experiment: Prevention of peptic abomasal ulcers in fattening calves, compound given as feed additive; abomasa dissected after slaughter; format: in vivo, Kälber; conditions: 2 mcg/kg body weight per day in 2 doses mixed into feed; 32 calves, ca. 70 days old and ca. 100 kg at start; treatment ended 14 days before slaughter; control group showed ulcers and haemorrhagic erosions
# From the text: as §1, §2
# Nach der Schlachtung zeigten sich bei der Sektion der Labmägen der Kontrollgruppe Läsionen der Labmagenschleimhaut in folgenden verschiedenen Stadien: • 3 Tiere hatten je ein Ulcus bis zu einem Durchmesser von 20 mm • 4 Tiere hatten mehrere Ulcera mit einem Durchmesser von 2 bis 15 mm
# Weitere Tiere wiesen hämorrhagische Erosionen auf den Magenschleimhautfalten auf.
structure (smiles),measurement,setting,value
CN/C(=N/CCSCc1nc[nH]c1C)NC#N [Cimetidine],Behandlungsversuch,peptische Labmagenulcera [1],erfolglos
"CC(C)(C)NCC(O)c1cc(Cl)c(N)c(Cl)c1 (centres unmarked) [1-(4-Amino-3,5-dichlor-phenyl)-2-tert.butylamino-äthanol]",Hemmwirkung auf die Magensäuresekretion,Magensäuresekretion,eine Hemmwirkung auf die Magensäuresekretion
"CC(C)(C)NCC(O)c1cc(Cl)c(N)c(Cl)c1 (centres unmarked) [1-(4-Amino-3,5-dichlor-phenyl)-2-tert.butylamino-äthanol-hydrochlorid]",höhere Endgewicht pro Tier,"[2]; test group versus control group, 2 mcg/kg per day in feed",ca. 10 kg
same,Steigerung der Fleischproduktion,[2]; whole test group (32 calves) at nearly equal feed consumption per animal,ca. 320 kg
same,LD50,[3],176 mg/kg
same,Nebenwirkungen,"[4]; calves, 2 mcg/kg per day in feed",keinerlei Nebenwrikungen
same,"hämatologische Untersuchung und Enzyme SGOT, CPK, LDH und GLDH","[4]; random samples, test group versus control group",keine signifikanten Unterschiede
same,Läsionen der Labmagenschleimhaut,peptische Labmagenulcera [5],bei keinem Tier der Versuchsgruppe irgendwelche Läsionen der Labmagenschleimhaut feststellbar
